Results on 20 molecules are retold here after patent publication US20260265178A1, “TERTIARY AMINE DERIVATIVES AND THEIR USES FOR TREATING A VIRAL INFECTION” (ENYO PHARMA, priority 2022, published 2026).

The first assay concerns Respiratory Syncytial Virus (RSV). Put plainly: Cytopathic effect (CPE) assay, HEp-2 cells infected by RSV, CellTiter-Glo viability readout. The class given is cell-based. The note with it: HEp-2 cells, RSV MOI 0.5, 3 days, CellTiter-Glo luminescence. As for the experimental part: Cytopathic Effect (CPE) Assay Experimental Procedure:
• RSV titer: 6.9×10^6 pfu/ml • MOI=pfu used for infection/cell number • 1) HEp-2 cells were seeded in 384-well plates at 5000 cells per well in 25 μl assay medium and incubated for 24 h at 37° C. in 5% CO2. Cells were seeded in each well expect for the top row, which contains medium only (low control). • 2) Compounds were dispensed using the Echo550 Liquid Handler. All compounds were used at 10 mM stock concentration. The positive control Ribavirin was included as control compound in all assays. • 3) Cells were expected to double once over 24 h. • 4) The cells were infected the next day at RSV MOI 0.5, adding 5 μl virus diluted in assay medium. • 5) Non-infected cells were treated with 5 μl assay medium (high control) • 6) Plates were centrifuged at 400 rpm, 10 sec to allow the virus to sink onto the cells. • 7) Cells were incubated at 37° C. in 5% CO2 for 3 days. • 8) 10 μl CellTiter-Glo® (Promega) was added to all wells. • 9) The plate was incubated at RT for 30 min. • 10) Luminescence was measured on the Envision plate reader.
For orientation: Damage to the host cells serves as the signal in cytopathic effect assays.
By IC50 is commonly meant the midpoint of a concentration-inhibition curve. Regarding `NC(=O)c1cccc(CN(Cc2cccc(C(N)=O)c2)CC2CCN(C(N)=O)C2)c1` (stereo not drawn) [Compound #17], the IC50 entry is “Not calculable”.

Still in this assay, the particulars now being: HEp-2 cells, RSV MOI 0.5, 3 days, CellTiter-Glo luminescence; read-out: IC50.
Turning to `COC[C@H](c1cccc(C(=O)O)c1)N(Cc1cccc(C(=O)OC)c1)Cc1cccc(C(=O)OC)c1` [Compound #5], the 50% inhibitory concentration (IC50) was 2000 nM.
Still for that read-out and setting: then `COC[C@H](c1cccc(Br)c1)N(Cc1cccc(C(=O)OC)c1)Cc1cccc(C(=O)OC)c1` [Compound #4], with 7 nM; and `COC[C@H](c1cccc(C(=O)O)c1)N(Cc1cccc(C(=O)O)c1)Cc1cccc(C(=O)O)c1` [Compound #6], with 200 nM.
Consider `COC(=O)c1cccc(CN(Cc2cccc(C(=O)OC)c2)[C@H](CO)c2cccc(Br)c2)c1` [Compound #3], for which the IC50 amounted to 3400 nM.

The same assay, now with this note: compared with comparative and positive control compounds, FIGS. 1-23A.
As to `COC[C@H](c1cccc(C(N)=O)c1)N(Cc1cccc(C(N)=O)c1)Cc1cccc(C(N)=O)c1` [Compound #21, 3-[[[(1S)-1-(3-carbamoylphenyl)-2-methoxy-ethyl]-[(3-carbamoylphenyl)methyl]amino]methyl]benzamide], the “% viability of cells infected by RSV” value is listed as “higher % of viability”.

The assay is the same for the next values; noted with them: compound #21 versus comparative compounds.
Consider `COC[C@H](c1cccc(C(N)=O)c1)N(Cc1cccc(C(N)=O)c1)Cc1cccc(C(N)=O)c1` [Compound #21, 3-[[[(1S)-1-(3-carbamoylphenyl)-2-methoxy-ethyl]-[(3-carbamoylphenyl)methyl]amino]methyl]benzamide], for which the “IC50 times lower than IC50 of comparative compounds” value was not below 7 times.

The same assay, now with this note: compound #21 versus compound #4.
Turning to `COC[C@H](c1cccc(C(N)=O)c1)N(Cc1cccc(C(N)=O)c1)Cc1cccc(C(N)=O)c1` [Compound #21, 3-[[[(1S)-1-(3-carbamoylphenyl)-2-methoxy-ethyl]-[(3-carbamoylphenyl)methyl]amino]methyl]benzamide], the “IC50 times lower than IC50 of the closest structural compound #4” value is recorded as “around 50 times”.

Still in this assay, the particulars now being: human respiratory syncytial virus, 72 h; HEp-2 cells, RSV MOI 0.5, 3 days, CellTiter-Glo luminescence; read-out: IC50.
`NC(=O)COCCN(Cc1cccc(C(N)=O)c1)Cc1cccc(C(N)=O)c1` [Compound #16]: the IC50 stood at 350 nM.
Take `NC(=O)c1ncn([C@@H]2O[C@H](CO)[C@@H](O)[C@H]2O)n1` [Ribavirin]: the half-maximal inhibitory concentration (IC50) stood at 15000 nM.
In the case of `Cc1cn2nc([C@@H]3CCCCN3C(=O)c3cc(Cl)ccc3NS(C)(=O)=O)cc2nc1N1CC[C@H](N)C1` [Presatovir], the IC50 was determined as 1.1 nM.
As to `NC(=O)c1cccc(CN(Cc2cccc(C(N)=O)c2)Cc2ccc3[nH]ncc3c2)c1` [Compound #7], the IC50 was found to be 3900 nM.
For the molecule `CC(c1cccc(C(N)=O)c1)N(Cc1cccc(C(N)=O)c1)Cc1cccc(C(N)=O)c1` (stereo not drawn) [Compound #15], the half-inhibitory concentration (IC50) amounted to 1.5 nM.
On the same count and under the same terms, the result for `COc1ccc(CN(Cc2cccc(C(N)=O)c2)Cc2cccc(C(N)=O)c2)cc1C(N)=O` [Compound #10] reads 5 nM.
The same measure, in the same setting: the result for `NC(=O)c1cccc(CN(Cc2cccc(C(N)=O)c2)C[C@H]2CCCN(C(N)=O)C2)c1` [Compound #11] reads 4.5 nM; that for `COC[C@H](c1cccc(C(N)=O)c1)N(Cc1cccc(C(N)=O)c1)Cc1cccc(C(N)=O)c1` [Compound #21, 3-[[[(1S)-1-(3-carbamoylphenyl)-2-methoxy-ethyl]-[(3-carbamoylphenyl)methyl]amino]methyl]benzamide], 0.15 nM.
For the molecule `C[C@@H](c1cccc(C(N)=O)c1)N(Cc1cccc(C(N)=O)c1)Cc1cccc(C(N)=O)c1` [Compound #13], the half-maximal inhibitory concentration (IC50) turned out to be 4.4 nM.
As for `COc1cc(CN(Cc2cccc(C(N)=O)c2)Cc2cccc(C(N)=O)c2)cc(C(N)=O)c1` [Compound #14], the 50% inhibitory concentration (IC50) came to 70 nM.
As to `NC(=O)c1cccc(CN(Cc2cccc(C(N)=O)c2)CC2CCCN(C(N)=O)C2)c1` (stereo not drawn) [Compound #18], the IC50 was 8 nM.
Regarding `NC(=O)c1cccc(CN(Cc2cccc(C(N)=O)c2)C[C@@H]2CCCN(C(N)=O)C2)c1` [Compound #8], the 50% inhibitory concentration (IC50) was 100 nM.
Take `NC(=O)c1cccc(CN(Cc2cccc(C(N)=O)c2)CC2(F)CCCN(C(N)=O)C2)c1` (stereo not drawn) [Compound #20]: the IC50 was 130 nM.
`CNC(=O)COCCN(Cc1cccc(C(N)=O)c1)Cc1cccc(C(N)=O)c1` [Compound #9]: the IC50 stood at 2000 nM.
Regarding `NC(=O)c1cccc(CN(Cc2cccc(C(N)=O)c2)CC2CCCNC2)c1` (stereo not drawn) [Compound #12], the half-inhibitory concentration (IC50) came to 130 nM.

Another assay has as its system recombinant HRSV expressing the firefly luciferase. In words: In vivo anti-hRSV activity in a mouse model of infection (recombinant HRSV expressing firefly luciferase, bioluminescence). The note with it: BALB/C mice, 1 mpk intranasally, 5 days post infection, versus mock-treated, p<0.05. The method, then: FIG. 24: In vivo evaluation of compound #21 anti-hRSV activity in a mouse model of infection. FIG. 24A: Bioluminescence was measured by intranasal injection of 50 μl of D-luciferin (200 mM) and capture of photon emission from the chest at 5 days post infection using the IVIS system. Dorsal and ventral views of mice representative of the results are shown. FIG. 24B: Comparative bioluminescence between compound #21 and mock-treated mice 5 days post infection. Each data point represents mean±s.e.m. Brown-Forsythe Test and Welch ANOVA followed by Dunnett's multiple comparison test; * p<0.05
An engineered recombinant HRSV expressing the firefly luciferase was used in a mouse model of infection described in Rameix-Welti et al., Nature Communications, 2014. BALB/C mice were infected with 50×10^4 p.f.u. of virus and treated intranasally by 1 mpk compound #21 or vehicle (10 mice/group). Bioluminescence was measured by intranasal injection of 50 μl of D-luciferin (200 mM) and capture of photon emission from the chest at 5 days post infection using the IVIS system.
Dorsal and ventral views of mice representative of the results are shown at FIG. 24A. Comparative bioluminescence between compound #21 and mock-treated mice 5 days post infection are shown at FIG. 24B. Each data point represents mean±s.e.m. Brown-Forsythe Test and Welch ANOVA followed by Dunnett's multiple comparison test; * p<0.05.
`COC[C@H](c1cccc(C(N)=O)c1)N(Cc1cccc(C(N)=O)c1)Cc1cccc(C(N)=O)c1` [Compound #21, 3-[[[(1S)-1-(3-carbamoylphenyl)-2-methoxy-ethyl]-[(3-carbamoylphenyl)methyl]amino]methyl]benzamide]: the “bioluminescent signal in the lung” value is reported as “significantly reduced”.
